# Assay results taken from ChEMBL document CHEMBL1201862, “PubChem BioAssay data set” (2004).
# Activity calls are given as the source filed them. For most assays here, no stated cut-off is given here; in the data, actives have a measured EC50 and inactives only a lower limit.
# What was measured:
# [1] = luciferase reporter signal suppression in cells – H4 neuroglioma cells, luminescence, dose response (AID 1990); format: functional, cell-based
# [2] = Luminescence Cell-Based Dose Response HTS to Identify Inhibitors of 5'UTR Stem-Loop Driven Prion Protein mRNA Translation in H4 Neuroglioblastoma Cells. [Related pubchem assays: 1827 (Project Summary), 1813 (Primary HTS)]; format: functional
# [3] = alpha-synuclein stem-loop luciferase translation blockers – H4 neuroglioma cells, luminescence, confirmation (AID 1988); format: functional, cell-based
# [4] = Luminescence Cell-Based Dose Retest to Confirm Inhibitors of Cancer Stem Cells. [Related pubchem assays (depositor defined):AID2717, AID2721]; format: functional; settings: Homo sapiens
# Cytochrome P450 1A2 = molecular target: T1, Cytochrome P450 1A2 (Homo sapiens, UniProt P05177);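 further: PubChem cytochrome P450 panel assay, CYP1A2 panel member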
# T1 sequence (P05177 whole entry): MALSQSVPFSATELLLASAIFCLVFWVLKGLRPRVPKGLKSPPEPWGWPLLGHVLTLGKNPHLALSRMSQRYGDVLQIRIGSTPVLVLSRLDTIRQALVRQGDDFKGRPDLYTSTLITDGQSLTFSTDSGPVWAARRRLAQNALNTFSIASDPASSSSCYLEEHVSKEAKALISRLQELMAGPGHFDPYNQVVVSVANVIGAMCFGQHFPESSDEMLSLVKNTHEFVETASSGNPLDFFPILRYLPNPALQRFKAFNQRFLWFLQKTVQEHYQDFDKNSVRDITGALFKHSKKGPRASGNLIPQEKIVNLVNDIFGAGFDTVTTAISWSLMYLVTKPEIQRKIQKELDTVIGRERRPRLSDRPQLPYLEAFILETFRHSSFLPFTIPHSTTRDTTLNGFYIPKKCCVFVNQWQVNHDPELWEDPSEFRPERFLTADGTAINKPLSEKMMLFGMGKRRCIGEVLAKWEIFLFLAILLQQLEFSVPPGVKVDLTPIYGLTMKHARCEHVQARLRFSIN
# Cytochrome P450 3A4 = Cytochrome P450 3A4 (Homo sapiens, UniProt P08684);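 further: CYP3A4 tested as one member of a cytochrome P450 panel screen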
# Cytochrome P450 2C9 = Cytochrome P450 2C9 (Homo sapiens, UniProt P11712)
# [5] = system: Streptococcus sp. 'group A'; assay: Streptococcus pyogenes SK(-)GAS viability under kanamycin – luminescence, BacTiterGlo, confirmation, counter-screen for streptokinase expression inhibitor project, dose response (AID 1900); format: functional, organism-based
# Streptokinase A = molecular target: T2, Streptokinase A (Streptococcus pyogenes serotype M1, UniProt P10520); assay: viability-normalized secreted streptokinase activity reduction – plasminogen activation absorbance, OD405, dose response (AID 1914); format: functional, Streptococcus pyogenes M1 GAS;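 further: secreted streptokinase activity via plasminogen activation per viability signal from cell pellet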
# T2 sequence (P10520 whole entry): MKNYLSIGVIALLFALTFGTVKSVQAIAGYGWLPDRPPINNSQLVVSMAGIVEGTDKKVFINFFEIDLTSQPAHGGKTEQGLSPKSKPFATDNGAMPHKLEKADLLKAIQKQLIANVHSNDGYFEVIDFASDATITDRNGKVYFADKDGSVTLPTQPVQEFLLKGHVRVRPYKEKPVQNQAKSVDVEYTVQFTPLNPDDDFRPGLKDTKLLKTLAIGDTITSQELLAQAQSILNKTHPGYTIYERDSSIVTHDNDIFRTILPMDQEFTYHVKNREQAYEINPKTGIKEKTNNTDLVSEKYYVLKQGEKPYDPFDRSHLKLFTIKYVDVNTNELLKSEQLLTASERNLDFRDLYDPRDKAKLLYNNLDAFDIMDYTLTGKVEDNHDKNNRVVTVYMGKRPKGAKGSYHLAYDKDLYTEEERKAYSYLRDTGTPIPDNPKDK
# Streptococcus = assay: GAS UMAA2166 growth inhibition – luminescence, BacTiterGlo, counter-screen for streptokinase expression inhibitor project, dose response (AID 1915); format: functional, organism-based;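 further: potency for reduction of bacterial viability or growth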
# INS1 = assay: INS-1E survival protection against cytokine death – cell-based, luminescence, retest, dose response (AID 449756); format: functional; settings: Rattus norvegicus;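 further: cell death triggered by IL-1 beta plus TNF-alpha plus IFN-gamma mixture; protective hits raise ATP signal compared with cytokine alone wells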
# Paired box protein Pax-8 = Paired box protein Pax-8 (Homo sapiens, UniProt Q06710); assay: PAX8 transcriptional activity inhibition in RMG-I – RMG-I cells, luciferase, cherry-pick, dose response (AID 687027); format: functional, cell-based;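 further: luciferase reporter driven by Pax8 target thyroperoxidase promoter measured by SteadyGlo luminescence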
# [6] = molecular target: T3, Heat shock factor protein 1 (Mus musculus, UniProt P38532); assay: enhancement of HSF1-driven luciferase signal – cell-based, NIH3T3, luminescence, dose retest, confirmation (AID 435004); format: functional;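 further: stress induced by proteasome inhibitor MG132 added 30 min after compound; luciferase reporter driven by HSF1 response element in NIH3T3 cells; actives raise luminescence as potentiators of the MG132 stress response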
# T3 sequence (P38532 whole entry): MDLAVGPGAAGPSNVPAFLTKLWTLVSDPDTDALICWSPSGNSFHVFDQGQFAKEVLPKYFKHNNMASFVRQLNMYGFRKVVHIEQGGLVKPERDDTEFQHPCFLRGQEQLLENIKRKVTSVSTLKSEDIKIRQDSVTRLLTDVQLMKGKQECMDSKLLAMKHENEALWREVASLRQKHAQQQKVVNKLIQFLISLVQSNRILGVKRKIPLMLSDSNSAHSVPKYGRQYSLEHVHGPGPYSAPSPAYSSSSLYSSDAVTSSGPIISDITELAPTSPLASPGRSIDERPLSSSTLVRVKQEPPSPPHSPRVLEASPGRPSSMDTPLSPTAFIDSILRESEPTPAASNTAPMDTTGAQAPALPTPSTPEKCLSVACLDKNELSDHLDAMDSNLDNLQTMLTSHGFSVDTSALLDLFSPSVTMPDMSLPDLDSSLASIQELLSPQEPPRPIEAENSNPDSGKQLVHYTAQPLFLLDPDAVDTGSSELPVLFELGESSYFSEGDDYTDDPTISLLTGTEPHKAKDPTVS
# Cytochrome P450 2D6 = Cytochrome P450 2D6 (Homo sapiens, UniProt P10635);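 further: CYP2D6 member of a cytochrome P450 panel assay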
# [7] = Trypanosoma cruzi growth suppression in host cells – NIH3T3 host cells, beta-gal luminescence, confirmation (AID 2044); format: functional, cell-based;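 further: intracellular parasites grown in NIH/3T3 mouse fibroblasts as host cells; luminescent beta-galactosidase reporter signal from transgenic T. cruzi replicating inside host cells; inhibitors lower the luminescence signal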
# [8] = NIH3T3 cell viability loss – ATP luminescence, mouse fibroblasts, counter-screen, dose response (AID 2010); format: functional, cell-based;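 further: cells exposed to compound for about 90 hours before reading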
# Cytochrome P450 2D6, sequence (P10635 whole entry): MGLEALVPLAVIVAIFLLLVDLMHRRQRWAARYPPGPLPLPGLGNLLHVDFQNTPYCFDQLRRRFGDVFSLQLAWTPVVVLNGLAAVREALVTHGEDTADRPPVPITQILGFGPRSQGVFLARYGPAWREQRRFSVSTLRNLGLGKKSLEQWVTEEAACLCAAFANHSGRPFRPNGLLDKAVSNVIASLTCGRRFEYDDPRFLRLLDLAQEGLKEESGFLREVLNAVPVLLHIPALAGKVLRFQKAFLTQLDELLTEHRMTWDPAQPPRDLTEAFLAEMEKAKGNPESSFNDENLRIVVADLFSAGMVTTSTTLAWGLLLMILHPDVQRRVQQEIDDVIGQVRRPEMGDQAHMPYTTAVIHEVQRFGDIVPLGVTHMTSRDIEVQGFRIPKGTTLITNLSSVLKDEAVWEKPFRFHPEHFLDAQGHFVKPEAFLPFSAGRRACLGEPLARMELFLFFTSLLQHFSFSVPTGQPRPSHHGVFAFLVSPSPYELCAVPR
# Cytochrome P450 3A4, sequence (P08684 whole entry): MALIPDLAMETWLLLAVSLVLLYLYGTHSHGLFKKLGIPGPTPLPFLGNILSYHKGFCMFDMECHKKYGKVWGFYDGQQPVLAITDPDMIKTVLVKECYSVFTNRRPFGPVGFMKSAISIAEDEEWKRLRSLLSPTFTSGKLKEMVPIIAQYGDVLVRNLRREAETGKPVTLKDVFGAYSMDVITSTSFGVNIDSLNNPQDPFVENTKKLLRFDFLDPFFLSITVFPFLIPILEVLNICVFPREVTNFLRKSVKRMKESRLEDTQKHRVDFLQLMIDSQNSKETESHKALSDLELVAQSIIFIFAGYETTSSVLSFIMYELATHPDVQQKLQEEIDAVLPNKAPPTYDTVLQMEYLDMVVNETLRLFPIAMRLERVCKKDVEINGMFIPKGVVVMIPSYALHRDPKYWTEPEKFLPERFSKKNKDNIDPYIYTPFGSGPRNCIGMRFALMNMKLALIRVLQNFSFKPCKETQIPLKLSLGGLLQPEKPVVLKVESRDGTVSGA
# Cytochrome P450 2C9, sequence (P11712 whole entry): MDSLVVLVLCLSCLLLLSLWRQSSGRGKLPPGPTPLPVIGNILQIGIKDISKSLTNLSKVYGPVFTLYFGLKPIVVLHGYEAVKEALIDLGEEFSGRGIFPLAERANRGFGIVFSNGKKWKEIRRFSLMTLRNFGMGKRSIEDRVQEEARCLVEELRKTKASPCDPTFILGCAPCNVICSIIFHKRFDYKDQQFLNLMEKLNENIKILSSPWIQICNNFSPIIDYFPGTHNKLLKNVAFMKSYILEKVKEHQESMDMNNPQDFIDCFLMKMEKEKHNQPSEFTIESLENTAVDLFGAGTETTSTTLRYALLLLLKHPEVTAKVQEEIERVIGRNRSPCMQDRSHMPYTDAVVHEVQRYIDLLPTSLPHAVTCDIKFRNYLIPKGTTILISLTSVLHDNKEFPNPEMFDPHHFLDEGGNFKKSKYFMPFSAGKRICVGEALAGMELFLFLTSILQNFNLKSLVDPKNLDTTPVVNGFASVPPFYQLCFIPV
# Paired box protein Pax-8, sequence (Q06710 whole entry): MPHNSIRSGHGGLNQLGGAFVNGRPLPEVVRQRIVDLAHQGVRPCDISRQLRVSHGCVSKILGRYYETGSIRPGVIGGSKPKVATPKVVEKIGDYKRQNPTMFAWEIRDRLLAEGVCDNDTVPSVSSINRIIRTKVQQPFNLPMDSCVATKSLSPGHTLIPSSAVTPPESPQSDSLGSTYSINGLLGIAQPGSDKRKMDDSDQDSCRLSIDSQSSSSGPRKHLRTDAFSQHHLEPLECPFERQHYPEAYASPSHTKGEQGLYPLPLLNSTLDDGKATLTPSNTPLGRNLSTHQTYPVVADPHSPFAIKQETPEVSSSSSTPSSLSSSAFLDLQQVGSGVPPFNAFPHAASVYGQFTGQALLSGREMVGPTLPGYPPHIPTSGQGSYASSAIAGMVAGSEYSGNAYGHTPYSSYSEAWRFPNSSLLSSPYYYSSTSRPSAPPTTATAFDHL
compound,measurement,setting,value
COc1ccc(CNC(=O)C2CCN(c3nc(OC)nc(OC)n3)CC2)cc1,EC50,[1],> 120 µM (not active)
same,EC50,[2],> 120 µM (not active)
same,EC50,[3],> 120 µM (not active)
Cc1cccc(NC(=O)c2nc[nH]c2C(=O)N[C@@H](C)c2ccccc2)c1,AC50,[4],7.02 µM (active)
COc1ccc(-c2noc(CSc3nnc(CCc4ccccc4)n3-c3ccccc3)n2)cc1OC,EC50,[1],14 µM (active)
same,EC50,[2],14.5 µM (active)
same,EC50,[3],> 120 µM (not active)
Brc1ccc([C@H]2CN3CCSC3=N2)cc1,AC50,Cytochrome P450 1A2,15.8 µM (inconclusive)
same,AC50,Cytochrome P450 3A4,25.1 µM (inconclusive)
COC(=O)[C@@H]1CC[C@H](C)[C@@H](c2ccc(C)cc2)N1C(=O)c1ccc(/C=N\O[C@@H](C)c2cn([C@H]3COC[C@H]3O)nn2)cc1,AC50,Cytochrome P450 3A4,3.16 µM (inconclusive)
same,AC50,Cytochrome P450 2C9,3.16 µM (inconclusive)
O=c1c(CCc2ccccc2)nc2cnc(N3CCNCC3)nc2n1-c1ccccc1,AC50,Cytochrome P450 1A2,15.8 µM (inconclusive)
CC1CCc2c(sc3nc(C4CC4)nc(N4CCN(C(=O)c5ccco5)CC4)c23)C1 (stereo not given),EC50,[5],3.48 µM (active)
same,EC50,Streptokinase A,3.24 µM (active)
same,EC50,Streptococcus,9.93 µM (active)
same,AC50,INS1,4.18 µM (active)
CC(C)=CCc1c(O)cc2c(c1O)C(=O)CC(c1ccc(O)cc1)O2 (stereo not given),EC50,[5],3.55 µM (active)
same,EC50,Streptokinase A,> 150 µM (not active)
same,EC50,Streptococcus,4 µM (active)
same,AC50,[4],3.72 µM (active)
O=C(Nc1cc(Sc2ccccn2)cc([N+](=O)[O-])c1)c1ccc(Cl)cc1,AC50,INS1,5.46 µM (active)
O=C(NCCCN1CCN(C2CCCCC2)CC1)Nc1ccccc1C(F)(F)F,AC50,Cytochrome P450 1A2,25.1 µM (inconclusive)
O=C(Nc1nnc(SCc2ccccc2Cl)s1)C1COc2ccccc2O1 (stereo not given),EC50,[5],4.52 µM (active)
same,EC50,Streptokinase A,7.36 µM (active)
same,EC50,Streptococcus,16.7 µM (active)
Cc1nc2ccccc2nc1-c1ccc(/N=[N+](\[O-])c2ccc(-c3nc4ccccc4nc3C)cc2)cc1,AC50,Cytochrome P450 1A2,6.31 µM (inconclusive)
CCCCn1c(SCC(N)=O)nc2sc3c(c2c1=O)CCC3,AC50,[4],126 µM (active)
C/C(=N\NC(=S)NC(C)C)c1ccc(C(C)(C)C)cc1,AC50,[4],11 µM (active)
CCN(CC)Cc1nc(O)c2c(n1)-c1ccccc1CC21CCCC1,AC50,Cytochrome P450 3A4,14.1 µM (inconclusive)
COc1cccc(S(=O)(=O)N2CC[C@H]3[C@@H](CO)N(C)c4ccc(C#Cc5ccc(F)cc5)cc4[C@H]32)c1,AC50,Paired box protein Pax-8,6.92 µM (active)
O=C(CNC(=O)c1ccc(F)cc1)N/N=C/c1cc(Br)ccc1OCc1ccccc1,EC50,[5],10.3 µM (active)
same,EC50,Streptokinase A,> 150 µM (not active)
same,EC50,Streptococcus,32.6 µM (active)
COc1ccc(-c2oc3cccnc3c2C#CC2(O)CCCCC2)cc1,EC50,[5],7.18 µM (active)
same,EC50,Streptokinase A,> 150 µM (not active)
same,EC50,Streptococcus,11.1 µM (active)
COc1ccc(-n2cnnc2)cc1,AC50,Cytochrome P450 1A2,14.1 µM (inconclusive)
same,AC50,Cytochrome P450 2C9,0.0282 µM (inconclusive)
OC(COCc1ccccc1)Cn1cnc2ccccc21 (stereo not given),AC50,Cytochrome P450 1A2,15.8 µM (inconclusive)
CCC/C=C(\CCC)C(NC(=O)c1cccs1)c1ccc(C(F)(F)F)cc1 (stereo not given),AC50,Cytochrome P450 1A2,3.16 µM (inconclusive)
same,AC50,Cytochrome P450 2C9,0.501 µM (inconclusive)
O=C(Oc1ccccc1N1C(=O)C2CCCCC2C1=O)c1ccccc1 (stereo not given),AC50,Cytochrome P450 1A2,15.8 µM (inconclusive)
same,AC50,Cytochrome P450 2C9,11.2 µM (inconclusive)
CC(Cc1ccccc1)N/C=C1\CC(=O)NC1=O (stereo not given),AC50,Cytochrome P450 3A4,3.98 µM (inconclusive)
CC(=O)c1c(O)c(C)c(-c2ccccc2)n(-c2ccccc2)c1=O,AC50,Cytochrome P450 1A2,6.31 µM (inconclusive)
Cc1nnc(SCC2=C(C(=O)O)N3C(=O)C(NC(=O)c4cccc(F)c4F)C3SC2)s1 (stereo not given),EC50,[5],0.377 µM (active)
same,EC50,Streptokinase A,> 150 µM (not active)
same,EC50,Streptococcus,1.01 µM (active)
same,EC50,[6],246 µM (active)
CO[C@@H]1/C=C\CC(=O)N[C@@H](C)C(=O)OC[C@@H](OC)[C@H](C)CCCC(=O)OC[C@H]1C,AC50,Cytochrome P450 3A4,3.16 µM (inconclusive)
Cc1ccc(-c2cnc(NC(=O)CCC(=O)N3CCCCC3)n2C)cc1,AC50,Cytochrome P450 2D6,14.1 µM (inconclusive)
same,AC50,Cytochrome P450 1A2,25.1 µM (inconclusive)
same,AC50,Cytochrome P450 3A4,39.8 µM (inconclusive)
c1ccc(-c2nnc(CSc3ccc4c(c3)OCCO4)o2)cc1,AC50,INS1,> 260 µM (inactive)
Nc1sc(-c2ccccc2)n[n+]1Cc1cccc2cccnc12,EC50,[1],> 120 µM (not active)
same,EC50,[2],> 120 µM (not active)
same,EC50,[3],> 120 µM (not active)
same,EC50,[7],2.77 µM (active)
same,EC50,[8],> 60 µM (not active)
Cc1ccc(Oc2nnc(-c3ccccc3)cc2C#N)cc1,AC50,Cytochrome P450 1A2,2.51 µM (inconclusive)
O=C(NCCCn1ccnc1)c1ccc(-c2ccccc2)cc1,AC50,INS1,7.41 µM (active)
C/C(=C\C1CCCCC1)C(NC(=O)c1ccc(C(F)(F)F)cc1)c1ccc(-c2ccccc2)cc1 (stereo not given),AC50,Cytochrome P450 3A4,12.6 µM (inconclusive)
COC(=O)c1cn(-c2ccc(Cl)cc2)c(=O)c2ccccc12,EC50,[1],16.2 µM (active)
same,EC50,[2],> 60 µM (not active)
same,EC50,[3],> 120 µM (not active)
CCNc1ncc2nc(-c3ccc(F)cc3)c(=O)n(CCC#N)c2n1,AC50,Cytochrome P450 2D6,0.1 µM (inconclusive)
same,AC50,Cytochrome P450 1A2,0.631 µM (inconclusive)
Cc1cc(-c2ccccc2)nnc1NCCN1CCOCC1 [MINAPRINE],AC50,Cytochrome P450 2D6,7.94 µM (inconclusive)
same,AC50,Cytochrome P450 1A2,10 µM (inconclusive)
COc1ccc(/C(O)=C/C2=NCCc3cc(OC)c(OC)cc32)cc1OC,EC50,[1],> 120 µM (not active)
same,EC50,[2],> 120 µM (not active)
same,EC50,[3],84.3 µM (active)
O=C(CN1CCN(c2ncccn2)CC1)NCCC1=CCCCC1,AC50,Cytochrome P450 3A4,17.8 µM (inconclusive)
Clc1cc(I)cc(Cl)c1N=C1NCCN1 [PI-CLONIDINE],AC50,Cytochrome P450 1A2,15.8 µM (inconclusive)
Cc1nn(-c2ccc(F)cc2)c(Cl)c1/C=C1\C(=O)Nc2ccccc21,AC50,[4],1.95 µM (active)
COC(=O)c1cc2ccsc2n1CC(=O)Nc1cc(Cl)ccc1OC,EC50,[1],18.8 µM (active)
same,EC50,[2],> 120 µM (not active)
same,EC50,[3],10.9 µM (active)
Oc1ccc(C[C@H]2CNC(=S)N2CC2CCCN2C[C@H](Cc2ccc(O)cc2)N2C[C@H](Cc3ccc(O)cc3)N(CC3CCCCC3)C2=S)cc1 (stereo not given in full),AC50,Paired box protein Pax-8,6.44 µM (active)
Cc1cc(=O)n2nc(N3CCCC(C(=O)N4CCc5ccccc54)C3)sc2n1 (stereo not given),EC50,[1],22.1 µM (active)
same,EC50,[2],> 120 µM (not active)
same,EC50,[3],34.1 µM (active)
CCN(CC)c1ccc(NC(=O)COc2ccc(C#N)cc2)cc1S(=O)(=O)Nc1ccc(OC)cc1,EC50,[1],20.6 µM (active)
same,EC50,[2],> 120 µM (not active)
same,EC50,[3],92.7 µM (active)
